Data: PubChem BioAssay AID248 (DTP/NCI, 2004)
Toxic doses and inconclusive results are not listed. Cut-off read from the data, not from the text of the source: active = T/C of 150% or more; inactive = T/C below 125%.

System: L1210 leukemia ip in BDF1 mice, survival T/C
Assay: NCI In Vivo Anticancer Drug Screen. Data for tumor model L1210 Leukemia (intraperitoneal) in B6D2F1 (BDF1) mice
Conditions: endpoint: mean survival time, higher = longer survival
Method in brief: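 Ratio derived from survival: compound-dosed mice over vehicle-dosed mice, all bearing a transplantable tumor.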

[1] = dose: 50.0 mg/kg/injection, schedule: Q01DX009 (ip), vehicle: saline
[2] = dose: 100.0 mg/kg/injection, schedule: Q01DX009 (ip), vehicle: saline
[3] = dose: 200.0 mg/kg/injection, schedule: Q01DX009 (ip), vehicle: saline
[4] = dose: 25.0 mg/kg/injection, schedule: Q01DX009 (ip), vehicle: Klucel (hydroxypropylcellulose) (HPC)
[5] = dose: 50.0 mg/kg/injection, schedule: Q01DX009 (ip), vehicle: Klucel (hydroxypropylcellulose) (HPC)
[6] = dose: 100.0 mg/kg/injection, schedule: Q01DX009 (ip), vehicle: Klucel (hydroxypropylcellulose) (HPC)
[7] = dose: 100.0 mg/kg/injection, schedule: Q04DX003 (ip), vehicle: Klucel (hydroxypropylcellulose) (HPC)
[8] = dose: 200.0 mg/kg/injection, schedule: Q01DX009 (ip), vehicle: Klucel (hydroxypropylcellulose) (HPC)
[9] = dose: 400.0 mg/kg/injection, schedule: Q01DX009 (ip), vehicle: Klucel (hydroxypropylcellulose) (HPC)
[10] = dose: 100.0 mg/kg/injection, schedule: Q01DX001 (ip), vehicle: saline
[11] = dose: 200.0 mg/kg/injection, schedule: Q01DX001 (ip), vehicle: saline
[12] = dose: 400.0 mg/kg/injection, schedule: Q01DX001 (ip), vehicle: saline
[13] = dose: 100.0 mg/kg/injection, schedule: Q01DX001 (ip), vehicle: Klucel (hydroxypropylcellulose) (HPC)
[14] = dose: 200.0 mg/kg/injection, schedule: Q01DX001 (ip), vehicle: Klucel (hydroxypropylcellulose) (HPC)
[15] = dose: 400.0 mg/kg/injection, schedule: Q01DX001 (ip), vehicle: Klucel (hydroxypropylcellulose) (HPC)

Measured: T/C

NC1=NC(c2ccccc2)N(c2ccccc2Cl)C(N)=N1 (stereo not given)
inactive: dose: 75.0 mg/kg/injection, schedule: Q01DX001 (ip), vehicle: Klucel (hydroxypropylcellulose) (HPC) 97 % of control | dose: 150.0 mg/kg/injection, schedule: Q01DX001 (ip), vehicle: Klucel (hydroxypropylcellulose) (HPC) 94 % of control

O=C(C[n+]1cccc(C(=O)NCc2ccccc2)c1)NCc1ccccc1
inactive: dose: 25.0 mg/kg/injection, schedule: Q01DX009 (ip), vehicle: saline sonified 100 % of control | dose: 50.0 mg/kg/injection, schedule: Q01DX009 (ip), vehicle: saline sonified 97 % of control | dose: 110.0 mg/kg/injection, schedule: Q01DX009 (ip), vehicle: saline sonified 95 % of control

Cc1cc(CN)c(C)cc1CN
inactive: [1] 96 % of control | [2] 95 % of control | dose: 100.0 mg/kg/injection, schedule: Q04DX003 (ip), vehicle: saline 103 % of control | [3] 86 % of control | dose: 200.0 mg/kg/injection, schedule: Q04DX003 (ip), vehicle: saline 97 % of control

S=c1[nH]c2ccc(Cl)cc2s1
inactive: [4] 101 % of control | dose: 25.0 mg/kg/injection, schedule: Q04DX003 (ip), vehicle: Klucel (hydroxypropylcellulose) (HPC) 115 % of control | [5] 97 % of control | dose: 50.0 mg/kg/injection, schedule: Q04DX003 (ip), vehicle: Klucel (hydroxypropylcellulose) (HPC) 106 % of control | [6] 97 % of control | [7] 96 % of control

COc1cc(C)cc(C(=O)O)c1
inactive: dose: 100.0 mg/kg/injection, schedule: Q04DX002 (ip), vehicle: saline with Tween-80 97 % of control | dose: 200.0 mg/kg/injection, schedule: Q04DX002 (ip), vehicle: saline with Tween-80 101 % of control | dose: 400.0 mg/kg/injection, schedule: Q04DX002 (ip), vehicle: saline with Tween-80 101 % of control

O=[N+]([O-])CC(Nc1ccc(Br)cc1)c1ccccc1 (stereo not given)
inactive: dose: 67.0 mg/kg/injection, schedule: Q01DX009 (ip), vehicle: saline with Tween-80 95 % of control | dose: 100.0 mg/kg/injection, schedule: Q01DX009 (ip), vehicle: saline with Tween-80 97 % of control | dose: 150.0 mg/kg/injection, schedule: Q01DX009 (ip), vehicle: saline with Tween-80 100 % of control | dose: 200.0 mg/kg/injection, schedule: Q01DX009 (ip), vehicle: saline with Tween-80 91 % of control | dose: 400.0 mg/kg/injection, schedule: Q01DX009 (ip), vehicle: saline with Tween-80 86 % of control

COC(=O)C1CC=CC(C)C1C(=O)OC (stereo not given)
inactive: [6] 105 % of control | [8] 103 % of control | [9] 100 % of control

COc1ccc([N+](=O)[O-])cc1NC(=O)N(Cc1ccccc1)c1ccccc1
inactive: [5] 96 % of control | [6] 93 % of control | [8] 96 % of control

O=C(C[P+](c1ccccc1)(c1ccccc1)c1ccccc1)c1ccc([N+](=O)[O-])cc1
inactive: [10] 105 % of control | [11] 105 % of control | [12] 100 % of control

CN(C)C(=O)N1CN(c2ccccc2)C2(CCN(CC3COc4ccccc4O3)CC2)C1=O (stereo not given)
inactive: [13] 101 % of control | [14] 97 % of control | [15] 106 % of control

[CH3][Sn]([CH3])([CH3])[O][N+](=O)[O-]
inactive: dose: 0.18 mg/kg/injection, schedule: Q01DX009 (ip), vehicle: saline 94 % of control | dose: 0.37 mg/kg/injection, schedule: Q01DX009 (ip), vehicle: saline 100 % of control | dose: 0.75 mg/kg/injection, schedule: Q01DX009 (ip), vehicle: saline 103 % of control | dose: 1.5 mg/kg/injection, schedule: Q04DX003 (ip), vehicle: saline 108 % of control | dose: 3.0 mg/kg/injection, schedule: Q04DX003 (ip), vehicle: saline 103 % of control

O=C(NCCCl)NC1CCC(C(=O)O)CC1 (stereo not given)
inactive: dose: 100.0 mg/kg/injection, schedule: Q01DX001 (ip), vehicle: saline with Tween-80 97 % of control | dose: 200.0 mg/kg/injection, schedule: Q01DX001 (ip), vehicle: saline with Tween-80 100 % of control | dose: 400.0 mg/kg/injection, schedule: Q01DX001 (ip), vehicle: saline with Tween-80 94 % of control

CC12CCC(C(=O)CC1=O)C2(C)C (stereo not given)
inactive: [2] 100 % of control | [3] 104 % of control | dose: 400.0 mg/kg/injection, schedule: Q01DX009 (ip), vehicle: saline 96 % of control

Oc1ccc2ccccc2c1N=Nc1nccs1
inactive: dose: 12.5 mg/kg/injection, schedule: Q01DX009 (ip), vehicle: Klucel (hydroxypropylcellulose) (HPC) 96 % of control | [4] 95 % of control | [5] 101 % of control | [13] 94 % of control | [7] 100 % of control | [14] 101 % of control | dose: 200.0 mg/kg/injection, schedule: Q04DX003 (ip), vehicle: Klucel (hydroxypropylcellulose) (HPC) 96 % of control | [15] 98 % of control | dose: 400.0 mg/kg/injection, schedule: Q04DX003 (ip), vehicle: Klucel (hydroxypropylcellulose) (HPC) 94 % of control

Cn1ccoc1=NC1CCCCC1
inactive: dose: 100.0 mg/kg/injection, schedule: Q04DX003 (ip), vehicle: saline with Tween-80 96 % of control | dose: 200.0 mg/kg/injection, schedule: Q04DX003 (ip), vehicle: saline with Tween-80 95 % of control

CCc1cc(O)c(Cl)c(C)c1Cl
inactive: dose: 50.0 mg/kg/injection, schedule: Q01DX009 (ip), vehicle: gum acacia 97 % of control | dose: 50.0 mg/kg/injection, schedule: Q04DX003 (ip), vehicle: gum acacia 94 % of control | dose: 100.0 mg/kg/injection, schedule: Q01DX009 (ip), vehicle: gum acacia 92 % of control | dose: 100.0 mg/kg/injection, schedule: Q04DX003 (ip), vehicle: gum acacia 98 % of control | dose: 200.0 mg/kg/injection, schedule: Q04DX003 (ip), vehicle: gum acacia 96 % of control

CC(C1CCCCC1)C(C#N)C(=O)NC(N)=O (stereo not given)
inactive: dose: 50.0 mg/kg/injection, schedule: Q01DX001 (ip), vehicle: saline 97 % of control | [10] 92 % of control | [11] 95 % of control | [12] 90 % of control

N#Cc1nc(-c2ccccc2)c(-c2ccccc2)nc1C#N
inactive: [6] 97 % of control | [8] 98 % of control | [9] 96 % of control

OCCOCCOCCN1CCN(C(c2ccccc2)c2ccc(Cl)cc2)CC1 (stereo not given)
inactive: dose: 12.5 mg/kg/injection, schedule: Q01DX009 (ip), vehicle: saline 95 % of control | dose: 25.0 mg/kg/injection, schedule: Q01DX009 (ip), vehicle: saline 100 % of control | [1] 101 % of control | [2] 95 % of control | [3] 91 % of control
